Consider six compounds from ChEMBL document CHEMBL5154837, “Discovery, optimization and evaluation of 1-(indolin-1-yl)ethan-1-ones as novel selective TRIM24/BRPF1 bromodomain inhibitors” (Eur J Med Chem, 2022).

pIC50: −log10 of the molar value. Activity calls are given as the source filed them. No cut-off for these calls is given here.

Data set [1] in a line: Apparent permeability of the compound across apical to basolateral side in human Caco-2 cells at 10 uM incubated for 120 mins and measured by LC-MS/MS analysis.
Data set [2] is described as follows: Apparent permeability of the compound across basolateral to apical side in human Caco-2 cells at 10 uM incubated for 120 mins and measured by LC-MS/MS analysis.
A short description of data set [3]: Apparent permeability of the compound across apical to basolateral side in human Caco-2 cells at 10 uM incubated for 120 mins assessed as drug recovery and measured by LC-MS/MS analysis.
Data set [4] can be described thus: Apparent permeability of the compound across basolateral to apical side in human Caco-2 cells at 10 uM incubated for 120 mins assessed as drug recovery and measured by LC-MS/MS analysis.
Data set [5] concerns the target T1, Transcription intermediary factor 1-alpha (Homo sapiens, UniProt O15164).
T1 sequence (O15164 whole entry): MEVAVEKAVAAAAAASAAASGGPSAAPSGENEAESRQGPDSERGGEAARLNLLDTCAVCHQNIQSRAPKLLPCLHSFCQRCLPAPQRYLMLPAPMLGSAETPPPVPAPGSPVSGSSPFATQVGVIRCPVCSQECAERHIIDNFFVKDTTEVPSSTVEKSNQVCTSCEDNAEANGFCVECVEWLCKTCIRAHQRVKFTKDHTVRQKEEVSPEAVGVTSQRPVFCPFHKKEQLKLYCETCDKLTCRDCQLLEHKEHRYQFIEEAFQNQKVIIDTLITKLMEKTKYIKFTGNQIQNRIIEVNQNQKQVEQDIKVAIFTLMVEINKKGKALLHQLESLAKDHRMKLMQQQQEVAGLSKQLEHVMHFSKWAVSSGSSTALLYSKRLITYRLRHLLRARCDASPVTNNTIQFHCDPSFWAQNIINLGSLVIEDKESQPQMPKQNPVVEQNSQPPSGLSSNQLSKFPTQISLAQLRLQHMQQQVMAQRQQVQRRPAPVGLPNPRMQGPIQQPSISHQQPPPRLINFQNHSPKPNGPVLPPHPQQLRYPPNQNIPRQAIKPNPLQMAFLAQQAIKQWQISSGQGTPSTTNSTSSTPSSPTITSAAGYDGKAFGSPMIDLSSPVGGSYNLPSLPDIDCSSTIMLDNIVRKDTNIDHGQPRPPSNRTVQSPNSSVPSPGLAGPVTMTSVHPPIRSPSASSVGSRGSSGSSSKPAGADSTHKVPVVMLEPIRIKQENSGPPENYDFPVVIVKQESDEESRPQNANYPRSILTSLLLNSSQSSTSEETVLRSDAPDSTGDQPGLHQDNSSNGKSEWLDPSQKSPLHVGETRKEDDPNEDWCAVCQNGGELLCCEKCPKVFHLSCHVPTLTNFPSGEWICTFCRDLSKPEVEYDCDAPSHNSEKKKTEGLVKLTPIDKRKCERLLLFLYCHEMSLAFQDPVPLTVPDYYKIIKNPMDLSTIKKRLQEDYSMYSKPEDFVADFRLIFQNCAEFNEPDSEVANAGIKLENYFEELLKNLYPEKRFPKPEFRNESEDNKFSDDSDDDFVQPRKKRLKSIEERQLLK
Nature of the data set: Inhibition of TRIM24 (unknown origin) measured alphascreen assay.

For data set [6], the target named is T2, Peregrin (Homo sapiens, UniProt P55201).
T2 sequence (P55201 whole entry): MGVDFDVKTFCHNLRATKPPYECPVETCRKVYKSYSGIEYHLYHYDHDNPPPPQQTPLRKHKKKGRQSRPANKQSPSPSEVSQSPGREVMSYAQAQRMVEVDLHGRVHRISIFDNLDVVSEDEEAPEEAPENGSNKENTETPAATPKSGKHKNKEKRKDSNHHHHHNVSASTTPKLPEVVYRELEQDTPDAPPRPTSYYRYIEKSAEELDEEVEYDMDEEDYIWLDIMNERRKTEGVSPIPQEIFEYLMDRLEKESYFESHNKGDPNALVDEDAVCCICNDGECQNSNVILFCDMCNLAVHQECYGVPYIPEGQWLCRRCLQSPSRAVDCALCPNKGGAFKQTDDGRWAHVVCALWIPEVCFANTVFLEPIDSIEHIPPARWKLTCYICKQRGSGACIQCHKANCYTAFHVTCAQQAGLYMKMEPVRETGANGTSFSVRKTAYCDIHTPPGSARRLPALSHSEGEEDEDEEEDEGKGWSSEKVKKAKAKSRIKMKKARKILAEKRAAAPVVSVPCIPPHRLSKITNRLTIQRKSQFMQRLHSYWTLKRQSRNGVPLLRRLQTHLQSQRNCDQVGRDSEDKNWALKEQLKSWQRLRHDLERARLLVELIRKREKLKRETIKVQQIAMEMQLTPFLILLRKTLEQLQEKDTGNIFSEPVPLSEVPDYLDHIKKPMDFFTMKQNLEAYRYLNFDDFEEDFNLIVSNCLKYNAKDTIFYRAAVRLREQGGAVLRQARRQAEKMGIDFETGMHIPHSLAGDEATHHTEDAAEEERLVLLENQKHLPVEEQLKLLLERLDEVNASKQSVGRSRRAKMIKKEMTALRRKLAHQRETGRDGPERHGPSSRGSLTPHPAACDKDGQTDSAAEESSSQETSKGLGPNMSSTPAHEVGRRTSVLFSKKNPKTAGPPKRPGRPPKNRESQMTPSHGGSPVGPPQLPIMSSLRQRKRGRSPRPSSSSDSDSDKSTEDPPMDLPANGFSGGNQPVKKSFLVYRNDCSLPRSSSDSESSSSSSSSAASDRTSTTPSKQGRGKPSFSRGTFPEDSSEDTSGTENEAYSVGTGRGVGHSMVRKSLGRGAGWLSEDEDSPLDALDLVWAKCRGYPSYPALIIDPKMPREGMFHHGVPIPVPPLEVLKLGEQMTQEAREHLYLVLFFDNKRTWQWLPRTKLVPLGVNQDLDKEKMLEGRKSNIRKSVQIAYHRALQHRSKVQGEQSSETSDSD
Nature of the data set: Inhibition of BRPF1 (unknown origin) measured alphascreen assay.

For data set [7], the system named is LNCaP C4-2B. Description: Antiproliferative activity against human LNCaP C4-2B cells measured after 96 hrs by Cell Titer-Glo assay. It counts as functional, cell-based.
Data set [8] relates to LNCaP. Nature of the data set: Antiproliferative activity against human LNCaP cells measured after 96 hrs by Cell Titer-Glo assay. It counts as functional, cell-based.
In data set [9] the test system is CWR22R. Nature of the data set: Antiproliferative activity against human 22Rv1 cells measured after 96 hrs by Cell Titer-Glo assay. Format: functional, cell-based. The following applies: 22Rv1, 96 h.
Data set [10] relates to LNCaP C4-2B. Nature of the data set: Inhibition of clonogenicity in human LNCaP C4-2B cells assessed as reduction in colony formation at 1 uM measured by crystal violet staining based analysis. It counts as functional.
For data set [11], the system named is CWR22R. Nature of the data set: Inhibition of clonogenicity in human 22Rv1 cells assessed as reduction in colony formation at 1 uM measured by crystal violet staining based analysis. Format: functional.
Data set [12] has as its system CWR22R. Nature of the data set: Downregulation of full-length AR mRNA expression in human 22Rv1 cells at 5 uM measured by RT-PCR analysis. Format: functional, cell-based.
Data set [13] deals with CWR22R. Description: Downregulation of AR-V7 mRNA expression in human 22Rv1 cells at 5 uM measured by RT-PCR analysis. It counts as functional, cell-based.
In data set [14] the test system is CWR22R. Nature of the data set: Downregulation of PSA mRNA expression in human 22Rv1 cells at 5 uM measured by RT-PCR analysis. Format: functional, cell-based.
Data set [15] has as its system CWR22R. Description: Downregulation of KLK2 mRNA expression in human 22Rv1 cells at 5 uM measured by RT-PCR analysis. It counts as functional, cell-based.
The test system of data set [16] is CWR22R. Description: Downregulation of TMPRSS2 mRNA expression in human 22Rv1 cells at 5 uM measured by RT-PCR analysis. Format: functional, cell-based.
Data set [17] relates to CWR22R. Description: Downregulation of C-MYC mRNA expression in human 22Rv1 cells at 5 uM measured by RT-PCR analysis. It counts as functional, cell-based.
Data set [18] deals with LNCaP. Nature of the data set: Suppression of PSA gene expression in human LNCaP cells assessed as mRNA level at 0.4 to 10 uM measured by luciferase gene reporter assay. To be noted: dose 0.4-10 µM. It counts as functional, cell-based.
Data set [19] relates to CWR22R. Description: Antitumor activity against human 22Rv1 cells xenografted in […] mouse assessed as tumor growth inhibition at 50 mg/kg, ip administered once daily for 21 days. Format: functional. To be noted: 22Rv1, 504 h, time 21 day, read-out: TGI.
Data set [20] can be described thus: Toxicity in […] mouse xenografted with human 22Rv1 cells assessed as body weight loss at 50 mg/kg, ip administered once daily for 21 days. It counts as organism-based, CWR22R. To be noted: in vivo, 504 h, time 21 day.
A short description of data set [21]: Efflux ratio of apparent permeability from basolateral to apical side over apical to basolateral side in human Caco-2 cells at 10 uM incubated for 120 mins and measured by LC-MS/MS analysis.

As to `CC(C)NCC(O)COc1cccc2ccccc12` (stereo not given) [PROPRANOLOL], the Papp A→B at 2 h, 10 µM in data set [1] was found to be 22.1 ×10⁻⁶ cm/s. The Papp B→A at 2 h, 10 µM in data set [2] came out at 20.9 ×10⁻⁶ cm/s. Also, the recovery at 2 h, 10 µM in data set [3] worked out at 78.5%; in [4], 99.2%.

As for `CC(C)NCC(O)COc1ccc(CC(N)=O)cc1` (stereo not given) [ATENOLOL], the recovery at 2 h, 10 µM in data set [3] amounted to 92.7%; in data set [4] it was 92.3%.

Regarding `COc1ccc(C2CC2)cc1S(=O)(=O)Nc1ccc2c(c1)CCN2C(C)=O`, the pIC50 in data set [5] was 6.01; in data set [6], 5.94; in data set [7] it was 6.11; in data set [8] it was 5.97; in data set [9], 6.09. The inhibition at 1 µM in data set [10] and in data set [11] was below 5% each time. In addition, the result in data set [12], in data set [13], in [14], in data set [15], in [16] and in data set [17] was Active. In addition, in data set [18], the result was Active. In addition, in data set [19], the inhibition in vivo at 50 mg/kg came to 53%. Further, in [20], the Activity entry is on record as “Non-Toxic”.

Consider `C[C@H]1O[C@@H](O[C@H]2[C@@H](O)C[C@H](O[C@H]3[C@@H](O)C[C@H](O[C@H]4CC[C@@]5(C)[C@H](CC[C@@H]6[C@@H]5C[C@@H](O)[C@]5(C)[C@@H](C7=CC(=O)OC7)CC[C@]65O)C4)O[C@@H]3C)O[C@@H]2C)C[C@H](O)[C@@H]1O` [DIGOXIN], for which the Papp B→A at 2 h, 10 µM in data set [2] was found to be 8.97 ×10⁻⁶ cm/s. In addition, the efflux ratio at 2 h, 10 µM in data set [21] turned out to be 9.69. Also, the recovery at 2 h, 10 µM amounted to 88.8% in data set [3] and 98.6% in data set [4].

Turning to `CCCOc1cc(OCCCCN(C)C)cc(Oc2cc3c(cc2NS(=O)(=O)c2ccc(OC)c(OC)c2)n(C)c(=O)n3C)c1`, the pIC50 is 4.87 in [7], 4.92 in data set [8] and 4.97 in data set [9].

For `COc1cccc(NS(=O)(=O)c2ccc3c(c2)CCN3C(C)=O)c1`, the pIC50 in [5] is 4.42.
